Test results as given in the supplement of paper PMC10307832.

How the values were obtained:
Assay in all cases: relative viability (nuclei count vs DMSO), 5 days (fraction); higher = more cells survive
Tanzisertib + Luminespib = compound: O[C@H]1CC[C@H](Nc2ncc3nc(Nc4c(F)cc(F)cc4F)n([C@H]4CCOC4)c3n2)CC1 [Tanzisertib] + CCNC(=O)c1noc(-c2cc(C(C)C)c(O)cc2O)c1-c1ccc(CN2CCOCC2)cc1 [Luminespib] (partner 0.01 µM)
Outline: (§1)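 Relative viability divides the nuclei count in treated wells by that in vehicle wells. Lung cancer cell lines were seeded in 1536-well plates, dosed by pin tool the next day, and fixed and stained after 5 days in one step with final 0.05% Triton X-100, 1% formaldehyde and 1 ug/ml Hoechst. Dosing was a single drug or a fixed anchor-drug dose plus five library-drug doses (not always all listed) in √10 steps, and values are medians of duplicate plates imaged at 4×.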

Tanzisertib + Lapatinib = compound: O[C@H]1CC[C@H](Nc2ncc3nc(Nc4c(F)cc(F)cc4F)n([C@H]4CCOC4)c3n2)CC1 [Tanzisertib] + CS(=O)(=O)CCNCc1ccc(-c2ccc3ncnc(Nc4ccc(OCc5cccc(F)c5)c(Cl)c4)c3c2)o1 [Lapatinib] (partner 2 µM)
Outline: as §1

[1] = compound: C[C@@H](N)c1ccc(C(=O)Nc2ccnc3[nH]ccc23)cc1 + CS(=O)(=O)N1CCN(Cc2cc3nc(-c4cccc5[nH]ncc45)nc(N4CCOCC4)c3s2)CC1 [Pictilisib] (partner 1 µM)
Outline: as §1

[2] = compound: C1CNCCC1C2=CC(=NN2)C3=CC=NC=C3 + Cc1nc(Nc2ncc(C(=O)Nc3c(C)cccc3Cl)s2)cc(N2CCN(CCO)CC2)n1 [Dasatinib] (partner 0.075 µM)
Outline: as §1

Cell Line	relative viability (Tanzisertib + Luminespib; first compound 0.08 µM)	relative viability (Tanzisertib + Luminespib; first compound 0.253 µM)	relative viability (Tanzisertib + Luminespib; first compound 0.8 µM)	relative viability (Tanzisertib + Luminespib; first compound 2.53 µM)	relative viability (Tanzisertib + Luminespib; first compound 8 µM)	relative viability (Tanzisertib + Lapatinib; first compound 0.08 µM)	relative viability (Tanzisertib + Lapatinib; first compound 0.253 µM)	relative viability (Tanzisertib + Lapatinib; first compound 0.8 µM)	relative viability (Tanzisertib + Lapatinib; first compound 2.53 µM)	relative viability (Tanzisertib + Lapatinib; first compound 8 µM)	relative viability ([1]; first compound 0.04 µM)	relative viability ([1]; first compound 0.1265 µM)	relative viability ([1]; first compound 0.4 µM)	relative viability ([1]; first compound 4 µM)	relative viability ([2]; first compound 0.08 µM)	relative viability ([2]; first compound 0.8 µM)	relative viability ([2]; first compound 2.53 µM)	relative viability ([2]; first compound 8 µM)	relative viability ([1]; first compound 1.265 µM)
NCI-H1793	0.174	0.216	0.2	0.165	0.216	0.737	0.873	0.74	0.608	0.643	0.251	0.437	0.327	0.402	0.335	0.357	0.352	0.404	
NCI-H3122	0.134	0.0952	0.125	0.0854	0.103	1.03	1.01	0.998	1.06	1.06	0.72	0.721	0.716	0.728	0.605	0.879	0.983	0.859	0.687
PC-14	0.181	0.109	0.22	0.217	0.17	0.34	0.303	0.26	0.341	0.311	0.679	0.699	0.684	0.612	0.245	0.272	0.296	0.221	0.665
EPLC-272H	0.251	0.206	0.519	0.921	0.408	0.929	1.06	0.955	1.22	1.03	0.387	0.34	0.339	0.297	0.392	0.348	0.393	0.415	
A-427	0.941	0.893	0.942	0.972	1.07	1.19	1.18	1.04	1.04	1.12	0.658	0.766	0.66	0.793	0.639	0.751	0.731	0.703	
